# Measurements as given in patent US8829014B2, “Thiazole and thiophene analogues, and their use in treating autoimmune diseases and cancers” (Board of Supervisors of Louisiana State University and …, priority 2006, dated 2014).
# Like-named read-outs stand apart in the source and are kept apart here.
# Columns and labels:
# [1] = tested on: NF-κB; test: NF-κB inhibitor screen: basal NF-κB-dependent luciferase expression in HEK/NF-κB cell line; type: cell-based; conditions: 1 uM, determined as described in Example 398; for inhibition at 1 µM: read-out: NFkB inhibition @ 1 uM
# Source text: Development of NF-κB and AP-1 Screens: Two HEK293 cell lines were purchased from Panomics. One cell line was stably transfected with a plasmid in which luciferase expression is regulated by six copies of the NF-κB transcriptional element (5′-[…]-3′); and the other cell line was stably transfected with a plasmid in which luciferase expression is regulated by three copies of the AP-1 transcriptional element (TGACTAA). To test the biological activity of the promoters, the HEK/NF-κB cell line was stimulated with TNF-α (20 ng/ml) for 24 hours, and the HEK/AP-1 cell line was stimulated with PMA (10 ng/ml) for 24 hours. […] In addition, a pyrimidine carboxyimide that had previously been shown (ref. 58) to be an inhibitor of transcription mediated by NF-κB and AP-1 reduced luciferase activity by approximately 40% in each of the NF-κB and AP-1 cell lines.
# The above two assays analyzed the effects of the compounds on post-transcriptional gene regulation, which is known to play a key role in cancer and inflammation. By contrast, the NF-κB assay and the following assay (AP-1) test whether the compounds act at the transcriptional level. Thirty-nine representative compounds were screened in an HEK/NF-κB cell line. HEK cells were stably transfected with a plasmid expressing luciferase under the control of the NF-κB promoter. These transfected cells were plated on a 96-well plate. As above, initial screening was carried out at 1.0 μM by adding compound in DMSO (0.3%) twenty-four hours after plating. Each compound was added to each of triplicate wells. DMSO (0.3%) was added to one set of wells as a control. Luciferase activity was determined using Promega's Brite-Glo kit, and the mean for each sample was normalized to that for DMSO.
# The fourteen representative compounds identified in the eIF4E screen as interesting (Numbered 2, 3, 4, 6, 8, 11, 15, 20, 21, 24, 25, 32, 33, and 35) were then tested for luciferase activity in a six-point dose response (10 nM, 33 nM, 100 nM, 330 nM, 1000 nM, and 3300 nM). Screening was carried out as described above by monitoring the effects of the compounds on basal NF-κB-dependent luciferase expression. Each dose was used out in triplicate, and repeated between two and four times. Results were normalized by the average expression level at the lowest concentration level, as described above.
# [2] = tested on: AP-1; test: AP-1 inhibitor screen: basal AP-1-dependent luciferase expression in HEK/AP-1 cell line; type: cell-based; conditions: 1 uM, determined as described in Example 398; for inhibition at 1 µM: AP1
# Source text: Development of NF-κB and AP-1 Screens: Two HEK293 cell lines were purchased from Panomics. One cell line was stably transfected with a plasmid in which luciferase expression is regulated by six copies of the NF-κB transcriptional element (5′-[…]-3′); and the other cell line was stably transfected with a plasmid in which luciferase expression is regulated by three copies of the AP-1 transcriptional element (TGACTAA). To test the biological activity of the promoters, the HEK/NF-κB cell line was stimulated with TNF-α (20 ng/ml) for 24 hours, and the HEK/AP-1 cell line was stimulated with PMA (10 ng/ml) for 24 hours.
# HEK cells were stably transfected with a plasmid expressing luciferase under the control of the AP-1 promoter. The transfected cells were plated on a 96-well plate for 24 hr. Then 1.0 μM of each compound in DMSO (0.3%) was added to triplicate wells and incubated for 48 hr. DMSO (0.3%) was added to one set of triplicate wells as a control. Luciferase activity was determined using Promega's Brite-Glo kit, and the mean for each sample was normalized to that for DMSO.
# Screening was carried out as described above, monitoring the compounds' effects on basal AP-1-dependent luciferase expression. Each dose-response experiment was carried out in triplicate and repeated between two and four times.
# [3] = tested on: carageenan-induced edema; test: Carrageenan-induced rat paw edema test (anti-inflammatory activity); type: in vivo, Sprague-Dawley rats; parameters: % Protection: concentration or dose not given beside the values; conditions: for inhibition in vivo at 50 mg/kg: Rattus norvegicus, po, 3 h
# Summary of the method: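 Sprague-Dawley rats (male and female, 150-250 g), fasted 18 h, given compound orally at 50 mg/kg in 0.1% sodium CMC (alternatively i.v., s.c. or i.p.). 1% carrageenan injected sub-plantar in right hind paw 1 h later. Paw displacement read again 3 h later; % protection = [(Control−Test)/Control]×100 versus saline control.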
# [4] = tested on: AP-1; test: PMA-induced AP-1 luciferase expression in HEK cells; type: cell-based; conditions: luciferase in HEK/AP-1 cells, as described in Example 398; for inhibition at 1 µM: AP1, 1 uM
# [5] = tested on: NF-κB; test: TNF-α-induced NF-κB-dependent luciferase expression in HEK cells; type: cell-based; conditions: luciferase in HEK/NF-κB cells, as described in Example 398; for inhibition at 1 µM: Homo sapiens, HEK293, 1 uM, read-out: NFkB inhibition @ 1 uM
# [6] = carrageenan-induced rat paw edema, defined in Example 397
# [7] = carrageenan-induced rat paw edema, defined in Example 397, read-out: % Protection
# [8] = rat paw edema, 50 mg/kg, reading 3 hours after carrageenan, [(Control−Test)/Control]×100%, read-out: % Protection P
# [9] = rat paw edema, 50 mg/kg, reading 3 hours after carrageenan, [(Control−Test)/Control]×100%
compound,measurement,setting,value
2-[2-(1-Furan-2-yl-vinylamino)-4-phenyl-thiazol-5-yl]-3-(4-Chloro-phenyl)-3H-quinazolin-4-one [Example 255],NFkB inhibition @ 1 uM,[1],0
same,AP-1 inhibition @ 1 uM,[2],7
2-[2-(1-Furan-2-yl-vinylamino)-4-phenyl-thiazol-5-yl]-3-(4-acetyl-phenyl)-3H-quinazolin-4-one [Example 270],NFkB inhibition @ 1 uM,[1],11
same,% Protection,[3]; [6],20%
same,AP-1 inhibition @ 1 uM,[2],18
2-[2-(1-Furan-2-yl-vinylamino)-4-phenyl-thiazol-5-yl]-3-(4-methoxyphenyl)-3H-quinazolin-4-one [Example 224],NFkB inhibition @ 1 uM,[1],−24
same,% Protection,[3]; [6],79%
same,AP-1 inhibition @ 1 uM,[2],2
2-[2-(1-Furan-2-yl-vinylamino)-4-phenyl-thiazol-5-yl]-3-phenyl-3H-quinazolin-4-one [Example 164],NFkB inhibition @ 1 uM,[1],2
same,% Protection,[3]; [6],66%
same,AP-1 inhibition @ 1 uM,[2],53
"CCOC(=O)Nc1nc(C)c(-c2nc3ccccc3c(=O)n2-c2ccccc2)s1 [Example 154, (4-Methyl-5-(4-oxo-3-phenyl-3,4-dihydro-quinazolin-2-yl)-thiazol-2-yl)-carbamic acid ethyl ester]",inhibition at 1 µM,[1],19%
same,inhibition in vivo at 50 mg/kg,[3]; [7],12%
same,inhibition at 1 µM,[2],-13%
"COC(=O)Nc1nc(C)c(-c2nc3ccccc3c(=O)n2-c2ccccc2)s1 [Example 155, (4-Methyl-5-(4-oxo-3-phenyl-3,4-dihydro-quinazolin-2-yl)-thiazol-2-yl)-carbamic acid methyl ester]",inhibition at 1 µM,[1],24%
same,inhibition in vivo at 50 mg/kg,[3]; [7],0%
same,inhibition at 1 µM,[2],-1%
"CCOC(=O)Nc1nc(C)c(-c2nc3ccccc3c(=O)n2-c2ccccc2C)s1 [Example 166, [4-Methyl-5-(4-oxo-3-o-tolyl-3,4-dihidro-quinazolin-2-yl)-thiazol-2-yl]-carbamic acid ethyl ester]",NFkB inhibition @ 1 uM,[1],21
same,AP-1 inhibition @ 1 uM,[2],14
"COc1ccc(-n2c(-c3sc(NC(=O)c4ccc(C)cc4)nc3-c3ccccc3)nc3ccccc3c2=O)cc1 [Example 223, 4-Methyl-N-[5-(4-oxo-3-(4-methoxyphenyl)-3,4-dihydroquinazolin-2-yl)-4-phenyl-thiazol-2-yl]-benzamide]",inhibition at 1 µM,[1],-24%
same,inhibition at 1 µM,[2],-28%
"Cc1ccc(Nc2nc(-c3ccccc3)c(-c3nc4ccccc4c(=O)n3-c3ccc(Cl)cc3)s2)cc1 [Example 257, 2-[2-(4-Methyl-phenylamino)-4-phenyl-thiazol-5-yl]-3-(4-Chloro-phenyl)-3H-quinazolin-4-one]",inhibition at 1 µM,[1],-10%
same,inhibition at 1 µM,[2],-51%
"COC(=O)Nc1nc(-c2ccccc2)c(-c2nc3ccccc3c(=O)n2-c2ccc(C(C)=O)cc2)s1 [Example 265, [5-(4-Oxo-3-(4-acetyl-phenyl)-3,4-dihidro-quinazolin-2-yl)-4-phenyl-thiazol-2-yl]-carbamic acid methyl ester]",NFkB inhibition @ 1 uM,[1],0
same,AP-1 inhibition @ 1 uM,[2],16
"CS(=O)(=O)c1ccc(C(=O)c2sc(N3CCN(C(=O)c4ccco4)CC3)nc2-c2ccccc2)cc1 [Example 385, {2-[4-(Furan-2-carbonyl)-piperazin-1-yl]-4-phenyl-thiazol-5-yl}-(4-methanesulfonyl-phenyl)-methanone]",inhibition in vivo at 50 mg/kg,[3]; [8],67%
same,inhibition at 1 µM,[4],6.44%
same,inhibition at 1 µM,[5],-15.1%
"O=C(c1cccnc1)c1sc(N2CCN(C(=O)c3ccco3)CC2)nc1-c1ccccc1 [Example 386, {2-[4-(Furan-2-carbonyl)-piperazin-1-yl]-4-phenyl-thiazol-5-yl}-pyridin-3-yl-methanone]",inhibition in vivo at 50 mg/kg,[3]; [8],23%
same,inhibition at 1 µM,[4],22.5%
same,inhibition at 1 µM,[5],52.8%
"COc1c(C)cnc(-c2sc(N3CCN(C(=O)c4ccco4)CC3)nc2-c2ccccc2)c1C [Example 388, Furan-2-yl-{4-[5-(4-methoxy-3,5-dimethyl-pyridin-2-yl)-4-phenyl-thiazol-2-yl]-piperazin-1-yl}-methanone]",inhibition in vivo at 50 mg/kg,[3]; [8],73.4%
same,inhibition at 1 µM,[4],52.1%
same,inhibition at 1 µM,[5],7.64%
"Cc1c(OCC(F)(F)F)ccnc1-c1sc(N2CCN(C(=O)c3ccco3)CC2)nc1-c1ccccc1 [Example 389, Furan-2-yl-(4-{5-[3-methyl-4-(2,2,2-trifluoro-ethoxy)-pyridin-2-yl]-4-phenyl-thiazol-2-yl}-piperazin-1-yl)-methanone]",inhibition in vivo at 50 mg/kg,[3]; [8],61.6%
same,inhibition at 1 µM,[4],42.5%
same,inhibition at 1 µM,[5],30.7%
"O=C(c1ccccn1)c1sc(N2CCN(C(=O)c3ccco3)CC2)nc1-c1ccccc1 [Example 390, {2-[4-(Furan-2-carbonyl)-piperazin-1-yl]-4-phenyl-thiazol-5-yl}-pyridin-2-yl-methanone]",inhibition in vivo at 50 mg/kg,[3]; [8],17%
same,inhibition at 1 µM,[4],40.9%
same,inhibition at 1 µM,[5],0.47%
"Cc1ccc(Nc2nc(-c3ccccc3)c(C(=O)c3sc(Nc4ccc(C)cc4)nc3-c3ccccc3)s2)cc1 [Example 394, Bis-[2-(4-methyl-phenylamino)-4-phenyl-thiazol-5-yl]-methanone]",inhibition in vivo at 50 mg/kg,[3]; [8],56%
same,inhibition at 1 µM,[4],41.9%
same,inhibition at 1 µM,[5],18.7%
(5-Morpholin-4-yl-4-pyridin-3-yl-thiophene-2-yl)-phenyl-methanone [Example 90],% Protection P,[3]; [9],6.09%
same,AP-1 inhibition @ 1 uM,[4],59.49
same,NFkB inhibition @ 1 uM,[5],7.91
Bis-[2-(2-benzoyl-amino)-4-benzayl-thiazole-5-yl]-methanone [Example 135],% Protection P,[3]; [9],34.72%
same,AP-1 inhibition @ 1 uM,[4],41.43
same,NFkB inhibition @ 1 uM,[5],39.98
Bis-[2-(2-furoyl-amino)-4-benzayl-thiazole-5-yl]-methanone [Example 136],% Protection P,[3]; [9],45.13%
same,AP-1 inhibition @ 1 uM,[4],32.23
same,NFkB inhibition @ 1 uM,[5],44.46
Bis-[4-(4-chloro-phenyl)-5-morpholin-4-yl-thiophen-2-yl]-methanone [Example 114],% Protection P,[3]; [9],30.55%
same,AP-1 inhibition @ 1 uM,[4],−70.59
same,NFkB inhibition @ 1 uM,[5],−39.23
"Dimethyl[carbonyl-bis(4-phenyl-1,3-thiazole-5,2-diyl)]biscarbamate [Example 130]",% Protection P,[3]; [9],40.78%
same,AP-1 inhibition @ 1 uM,[4],9.2
same,NFkB inhibition @ 1 uM,[5],12.78
N-{4-[4-(4-Chloro-phenyl)-5-morpholin-4-yl-thiophen-2-carbonyl]-phenyl}acetamide [Example 85],% Protection P,[3]; [9],20%
same,AP-1 inhibition @ 1 uM,[4],22.58
same,NFkB inhibition @ 1 uM,[5],−17.34
"{5-[3-(3-Methoxy-phenyl)-4-oxo-3,4-dihydro-quinazolin-yl]-thiazol-2-yl}-carbamic acid ethyl ester [Example 209]",NFkB inhibition @ 1 uM,[1],29
same,AP-1 inhibition @ 1 uM,[2],5
